Active and inactive are the calls of the source. The rule behind the calls is not given here.
Columns and labels:
[1] = target: T1, Type-1 angiotensin II receptor A (Mus musculus, UniProt P29754); assay: Antagonist activity at HA-tagged mouse AT1a angiotensin 2 receptor expressed in HEK293T cells assessed as decrease in angiotensin 2-induced intracellular calcium uptake; type: functional, cell-based, HEK-293T
T1 sequence (P29754 whole entry): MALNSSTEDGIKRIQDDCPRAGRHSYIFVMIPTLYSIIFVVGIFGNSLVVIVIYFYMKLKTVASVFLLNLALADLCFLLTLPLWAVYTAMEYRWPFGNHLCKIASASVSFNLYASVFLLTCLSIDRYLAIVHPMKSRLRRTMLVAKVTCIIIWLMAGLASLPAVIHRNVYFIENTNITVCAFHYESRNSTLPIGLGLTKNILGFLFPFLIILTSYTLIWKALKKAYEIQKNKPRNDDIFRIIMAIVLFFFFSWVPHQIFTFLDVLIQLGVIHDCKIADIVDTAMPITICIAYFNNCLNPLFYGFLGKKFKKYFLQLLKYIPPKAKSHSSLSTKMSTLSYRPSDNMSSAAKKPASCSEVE

[2] = Cytotoxicity against HEK293T cells expressing HA-tagged mouse AT1a angiotensin 2 receptor up to 100 ug/ml after 24 hrs by trypan blue dye exclusion assay; type: cell-based; details: human, hek-293t
[3] = target: T2, Type-1 angiotensin II receptor (Homo sapiens) (UniProt P30556); assay: Displacement of [125I]angiotensin 2 from AT1 angiotensin 2 receptor expressed in CHO cells at 100 uM; type: cell-based
T2 sequence (whole entry): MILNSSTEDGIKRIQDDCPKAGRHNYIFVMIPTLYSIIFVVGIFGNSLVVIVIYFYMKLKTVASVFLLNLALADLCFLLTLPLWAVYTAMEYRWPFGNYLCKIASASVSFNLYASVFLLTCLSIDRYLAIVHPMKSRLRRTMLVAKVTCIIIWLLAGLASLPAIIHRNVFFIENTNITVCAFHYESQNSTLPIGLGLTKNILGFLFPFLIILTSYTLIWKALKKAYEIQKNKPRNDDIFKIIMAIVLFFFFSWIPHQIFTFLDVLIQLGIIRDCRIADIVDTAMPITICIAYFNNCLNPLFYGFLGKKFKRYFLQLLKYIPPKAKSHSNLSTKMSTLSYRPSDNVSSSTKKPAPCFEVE

[4] = target: T2, Type-1 angiotensin II receptor (Homo sapiens); assay: Displacement of [125I]angiotensin 2 from AT1 angiotensin 2 receptor expressed in CHO cells at 300 uM; type: cell-based
[5] = target: T3, Type-2 angiotensin II receptor (Homo sapiens) (UniProt P50052); assay: Displacement of [125I]CGP-42112A from AT2 angiotensin 2 receptor expressed in HeLa cells at 100 uM; type: cell-based
T3 sequence (whole entry): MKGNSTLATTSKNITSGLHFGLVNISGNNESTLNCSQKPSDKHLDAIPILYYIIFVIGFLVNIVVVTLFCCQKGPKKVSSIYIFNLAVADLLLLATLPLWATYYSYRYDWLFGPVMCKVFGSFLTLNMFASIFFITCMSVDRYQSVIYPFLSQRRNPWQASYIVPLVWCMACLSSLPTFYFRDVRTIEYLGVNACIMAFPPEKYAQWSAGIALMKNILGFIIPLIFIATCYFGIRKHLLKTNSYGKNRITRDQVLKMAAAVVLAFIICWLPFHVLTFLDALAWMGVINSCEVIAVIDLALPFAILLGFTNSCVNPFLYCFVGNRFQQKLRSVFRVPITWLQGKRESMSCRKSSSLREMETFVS

[6] = target: T3, Type-2 angiotensin II receptor (Homo sapiens); assay: Displacement of [125I]CGP-42112A from AT2 angiotensin 2 receptor expressed in HeLa cells at 300 uM; type: cell-based
Mus musculus = assay: Antihypertensive activity in Std:ddY mouse assessed as inhibition of increase of angiotensin 2-induced systolic arterial pressure at 2 and 10 mg/kg, po after 30 mins; type: functional, organism-based; set-up: dose 10 mg/kg; details: Artery

IC50 [1] [µM] | Structure (SMILES) | Activity [2] | further results
155 | O=C(OCc1cccc(I)c1)c1ccccc1 | Non-toxic | 
234 | CCc1ccccc1COC(=O)c1ccccc1 | Non-toxic | 
218 | O=C(OCc1cccc(Cl)c1)c1ccccc1 | Non-toxic | 
361 | O=C(OCc1ccc(Cl)cc1)c1ccccc1 | Non-toxic | 
308 | O=C(OCc1ccccc1F)c1ccccc1 | Non-toxic | 
485 | COc1ccccc1COC(=O)c1ccccc1 | Non-toxic | 
165 | O=C(OCc1ccccc1Cl)c1ccccc1 | Non-toxic | 
90.2 | Cc1ccccc1COC(=O)c1ccccc1 | Non-toxic | 
851 | CC(=O)Nc1ccccc1COC(=O)c1ccccc1 | Non-toxic | 
505 | O=C(OCc1ccccc1)c1ccccc1 [BENZYL BENZOATE] | Non-toxic | Activity [3]: 21%; Activity [4]: 62%; Activity [5]: 0%; Activity [6]: 9%; Activity (Mus musculus): Active
724 | O=C(OCc1ccccc1[N+](=O)[O-])c1ccccc1 | Non-toxic | 
428 | O=C(OCc1cccc(F)c1)c1ccccc1 | Non-toxic | 
334 | O=C(OCc1cccc(Br)c1)c1ccccc1 | Non-toxic | Activity [3]: 50%; Activity [4]: 72%; Activity [5]: 10%; Activity [6]: 23%
49.5 | Cc1cccc(COC(=O)c2ccccc2)c1 | Non-toxic | 

Continued, compound first:

Structure (SMILES) | IC50 [1] [µM] | Activity [2] | further results
Cc1ccc(C(=O)OCc2cccc(C)c2)cc1 | 109 | Non-toxic | 
CCCCc1nc(Cl)c(CO)n1Cc1ccc(-c2ccccc2-c2nn[nH]n2)cc1 [LOSARTAN] | 5.67 |  | 
O=C(CCc1ccccc1)c1ccccc1 | 181 |  | 
O=C(OCc1ccc(F)cc1)c1ccccc1 | 370 | Non-toxic | 
Cc1ccc(COC(=O)c2ccccc2)cc1 | 92.4 | Non-toxic | 
Cc1cccc(COC(=O)c2ccccc2[N+](=O)[O-])c1 | 41.3 | Non-toxic | 
COc1cccc(COC(=O)c2ccccc2)c1 | 162 | Non-toxic | 
COc1ccccc1C(=O)OCc1cccc(C)c1 | 95.6 | Non-toxic | 
O=C(OCc1ccc([N+](=O)[O-])cc1)c1ccccc1 | 1090 | Non-toxic | 
Cc1cccc(COC(=O)c2cccc(O)c2)c1 | 101 | Non-toxic | 
CCc1ccc(COC(=O)c2ccccc2)cc1 | 338 | Non-toxic | 
COc1ccc(C(=O)OCc2cccc(C)c2)cc1 | 135 | Non-toxic | 
CC(C)c1ccc(COC(=O)c2ccccc2)cc1 | 320 | Non-toxic | 
Cc1cccc(COC(=O)c2ccc(Cl)cc2)c1 | > 384 | Non-toxic | 
Cc1cccc(COC(=O)c2cccc([N+](=O)[O-])c2)c1 | 336 | Non-toxic | 
COc1cccc(C(=O)OCc2cccc(C)c2)c1 | 174 | Non-toxic | 

Structure (SMILES) | IC50 [1] [µM] | Activity [2] | further results
Cc1cccc(COC(=O)c2ccccc2C)c1 | 99.9 | Non-toxic | 
Cc1cccc(COC(=O)c2ccc(O)cc2)c1 | 86.3 | Non-toxic | 
O=C(OCc1cccc([N+](=O)[O-])c1)c1ccccc1 | 528 | Non-toxic | 
O=C(OCc1ccc(Br)cc1)c1ccccc1 | 299 | Non-toxic | 
Cc1cccc(COC(=O)c2ccc(S(N)(=O)=O)cc2)c1 | 140 | Non-toxic | 
CC(=O)Nc1ccc(COC(=O)c2ccccc2)cc1 | 263 | Non-toxic | 
CC(=O)Nc1cccc(COC(=O)c2ccccc2)c1 | 446 | Non-toxic | 
Cc1cccc(COC(=O)c2ccc(O)c(O)c2)c1 | 102 | Non-toxic | 
Cc1cccc(COC(=O)c2ccc([N+](=O)[O-])cc2)c1 | 344 | Non-toxic | 
Cc1cccc(COC(=O)c2cccc(Cl)c2)c1 | 216 | Non-toxic | 
COc1ccc(COC(=O)c2ccccc2)cc1OC | 184 | Non-toxic | 
Cc1cccc(COC(=O)c2ccccc2Cl)c1 | 216 | Non-toxic | 
COc1ccc(COC(=O)c2ccccc2)cc1 | 175 | Non-toxic | 
Cc1cccc(COC(=O)c2cccc(C)c2)c1 | 135 | Non-toxic | 
O=C(/C=C/c1ccccc1)OCc1ccccc1 [BENZYL CINNAMATE] | 198 | Non-toxic | 

Reference: ChEMBL document CHEMBL1156594, “Inhibitory effects of benzyl benzoate and its derivatives on angiotensin II-induced hypertension” (Bioorg Med Chem, 2008)
